Measured values published in ChEMBL document CHEMBL1145269, “Synthesis and evaluation of urea-based indazoles as melanin-concentrating hormone receptor 1 antagonists for the treatment of obesity” (Bioorg Med Chem Lett, 2005).

What was measured:
[1] = target: Melanin-concentrating hormone receptor (Homo sapiens, UniProt Q969V1+Q99705); test: Inhibition of Melanin-concentrating hormone (MCH) mediated [Ca2+] release in IMR-32 cells; assay type: functional, cell-based
[2] = target: Melanin-concentrating hormone receptor 1 (Homo sapiens) (UniProt Q99705); test: Inhibitory concentration against human Melanin-concentrating hormone receptor 1 expressed in IMR-32 cells using [125I]MCH
[3] = Maximum plasma compound (10 mg/kg, p.o.) concentration in diet-induced obese mice; assay type: ADME, organism-based; parameters: dose 10 mg/kg, route oral; conditions: mouse, po
[4] = Area under curve in diet-induced obese mice brain at 10 mg/kg (p.o.) concentration; n=3; assay type: ADME, organism-based; parameters: dose 10 mg/kg, route oral; conditions: mouse, in vivo, po
[5] = Area under curve in diet-induced obese mice plasma at 10 mg/kg (p.o.) concentration; n=3; assay type: ADME, organism-based; parameters: dose 10 mg/kg, route oral; conditions: mouse, in vivo, po
[6] = Maximum brain compound (10mg/kg, p.o.) concentration in diet-induced obese mice; assay type: ADME, organism-based; parameters: dose 10 mg/kg, route oral; conditions: mouse, po
[7] = Area under curve in diet-induced obese mice brain at 10 mg/kg (p.o.) concentration; assay type: ADME, organism-based; parameters: dose 10 mg/kg, route oral; conditions: mouse, in vivo, po
[8] = Area under curve in diet-induced obese mice plasma at 10 mg/kg (p.o.) concentration; assay type: ADME, organism-based; parameters: dose 10 mg/kg, route oral; conditions: mouse, in vivo, po
[9] = target: Melanin-concentrating hormone receptor 1 (Homo sapiens) (UniProt Q99705); test: Inhibitory concentration against Melanin-concentrating hormone receptor 1 in human IMR-32 cells

Structure (SMILES) | IC50 [1] [µM] | IC50 [2] [nM] | also measured
O=C(Nc1ccc(Oc2ccccc2)cc1)Nc1ccc2c(cnn2CCCN2CCC(O)CC2)c1 | 0.894 | 91.5 | –
O=C(NCCc1ccc(Oc2ccccc2)cc1)Nc1ccc2cnn(CCN3CCCC3)c2c1 | 0.178 | 34.3 | Cmax [3]: 86 ng/mL; AUC [4]: 0 µg/h/g; AUC [5]: 0.335 µg/h/g
O=C(Nc1ccc(Oc2ccccc2)cc1)Nc1cccc2c1cnn2CCN1CCCC1 | > 10 | 1850 | –
O=C(NCc1ccc(Oc2ccccc2)cc1)Nc1ccc2c(cnn2CCN2CCCC2)c1 | > 10 | 508 | –
O=C1N(c2ccc(Oc3ccccc3)cc2)CCN1c1ccc2c(cnn2CCN2CCCC2)c1 | 1.12 | 19.8 | –
O=C(NCCc1ccc(Oc2ccccc2)cc1)Nc1ccc2c(cnn2CCN2CCCC2)c1 | > 10 | 545 | –
O=C(Nc1ccc(Oc2ccccc2)cc1)Nc1ccc2c(cnn2CCNC2CCCC2)c1 | 0.147 | 2.4 | –
COC[C@@H]1CCCN1CCCn1ncc2cc(NC(=O)Nc3ccc(Oc4ccccc4)cc3)ccc21 | 1.177 | 82.9 | –
O=c1n(-c2ccc(Oc3ccccc3)cc2)ccn1-c1ccc2c(cnn2CCN2CCCC2)c1 | 0.654 | 5.9 | Cmax [6]: 183 ng/g; Cmax [3]: 543 ng/mL; AUC [4]: 1.71 µg/h/g; AUC [5]: 1.35 µg/h/mL
O=C(Nc1ccc(OCc2ccccc2)cc1)Nc1ccc2cnn(CCN3CCCC3)c2c1 | 7.14 | 113 | –
O=C(CNCc1ccc(Oc2ccccc2)cc1)Nc1ccc2ccn(CCN3CCCC3)c2c1 | 1.81 | – | AUC [7]: 0.674 µg·h/g; AUC [8]: 1.16 µg/h/mL; IC50 [9]: 299 nM
O=C(Nc1ccc(Oc2ccccc2)cc1)Nc1ccc2c(cnn2CCN2CCC(O)CC2)c1 | > 10 | 6130 | –
O=C(NCc1ccc(Oc2ccccc2)cc1)Nc1ccc2cnn(CCN3CCCC3)c2c1 | 0.626 | 78.5 | –
